Converted amounts (≈) assume the structure as drawn. Starred links: 1 amine or outer side, 2 acyl side, 3 side chain; linkers in the order of their positions; H or OH if unused. Non-standard residues stand in square brackets, D forms with d. Residues, ends and D or L forms follow the SMILES beside them. ξ: configuration not given here. Pro(3ξ,4ξ-(CH2)4) = O=C(O)[C@H]1NCC2CCCCC21; X1 = O=C([C@@H]1CN([*:1])C2CCCCC21)[*:2]; Phe(4-F) = N[C@@H](Cc1ccc(F)cc1)C(=O)O; Tic = O=C(O)[C@@H]1Cc2ccccc2CN1; Dap = NC[C@H](N)C(=O)O; GABA = NCCCC(=O)O; βAla = NCCC(=O)O
Columns and labels:
Assay type in all cases: functional
Acinetobacter baumannii [1] = assay: Antimicrobial activity against Acinetobacter baumannii ATCC 19606 after 24 hrs; settings: ATCC 19606 = CIP 70.34 = JCM 6841, 24 h
Acinetobacter baumannii [2] = assay: Antimicrobial activity against Acinetobacter baumannii WRAIR after 24 hrs
Staphylococcus aureus = assay: Antimicrobial activity against methicillin-resistant Staphylococcus aureus ATCC 33591 after 24 hrs; settings: ATCC 33591, 24 h
Yersinia pestis = assay: Antimicrobial activity against Yersinia pestis CO92 after 24 hrs; settings: CO92, 24 h
Brucella melitensis = assay: Antimicrobial activity against Brucella melitensis 16 M after 24 hrs
Brucella abortus = assay: Antimicrobial activity against Brucella abortus 2308 after 24 hrs; settings: Brucella abortus, 2308, 24 h
Brucella suis = assay: Antimicrobial activity against Brucella suis ATCC 23445 after 24 hrs; settings: ATCC 23445, 24 h
Bacillus anthracis = assay: Antimicrobial activity against Bacillus anthracis Ames after 24 hrs
Francisella tularensis = assay: Antimicrobial activity against Francisella tularensis SCHU-S4 after 24 hrs; settings: SCHU-S4, 24 h
Burkholderia mallei = assay: Antimicrobial activity against Burkholderia mallei ATCC 23444 after 24 hrs; settings: ATCC 23444, 24 h
[3] = test system: Burkholderia pseudomallei; assay: Antimicrobial activity against Burkholderia pseudomallei BURK003(1026b) after 24 hrs

SMILES | MIC (Acinetobacter baumannii [1]) [µM] | MIC (Acinetobacter baumannii [2]) [µM] | MIC (Staphylococcus aureus) [µM] | MIC (Yersinia pestis) [µM] | MIC (Brucella melitensis) [µM] | MIC (Brucella abortus) [µM] | MIC (Brucella suis) [µM] | MIC (Bacillus anthracis) [µM] | MIC (Francisella tularensis) [µM] | MIC (Burkholderia mallei) [µM] | MIC [3] [µM]
CC(=O)NCCC(=O)N[C@@H](Cc1ccc(F)cc1)C(=O)N1Cc2ccccc2C[C@H]1C(=O)N1CC2CCCCC2[C@H]1C(=O)NCCC(=O)N[C@@H](CN)C(=O)N1Cc2ccccc2C[C@H]1C(=O)N1CC2CCCCC2[C@H]1C(=O)NCCC(=O)N[C@@H](Cc1ccc(F)cc1)C(=O)N1Cc2ccccc2C[C@H]1C(=O)N1CC2CCCCC2[C@H]1C(=O)NCCC(=O)N[C@@H](CN)C(=O)N1Cc2ccccc2C[C@H]1C(=O)N[C@@H](CN)C(=O)N[C@@H](CN)C(=O)N[C@@H](CN)C(=O)N[C@@H](CN)C(N)=O (stereo not given in full) (Ac-[βAla][Phe(4-F)][Tic][Pro(3ξ,4ξ-(CH2)4)][βAla][Dap][Tic][Pro(3ξ,4ξ-(CH2)4)][βAla][Phe(4-F)][Tic][Pro(3ξ,4ξ-(CH2)4)][βAla][Dap][Tic][Dap][Dap][Dap][Dap]-NH2) | 3.4 (≈ 7.75 µg/mL) | 3.4 (≈ 7.75 µg/mL) | 109 (≈ 249 µg/mL) | 219 (≈ 499 µg/mL) | 219 (≈ 499 µg/mL) | 219 (≈ 499 µg/mL) | 219 (≈ 499 µg/mL) | 6.8 (≈ 15.5 µg/mL) | 219 (≈ 499 µg/mL) | 219 (≈ 499 µg/mL) | 219 (≈ 499 µg/mL)
CC(C)C[C@H](NC(=O)[C@@H](N)CCCCN)C(=O)N1Cc2ccccc2C[C@H]1C(=O)N1C[C@@H](C(=O)N[C@@H](CCCCN)C(=O)N2Cc3ccccc3C[C@H]2C(=O)N2C[C@@H](C(=O)N[C@@H](Cc3ccccc3)C(=O)N3Cc4ccccc4C[C@H]3C(=O)N3C[C@@H](C(=O)N[C@@H](CCCCN)C(=O)N4Cc5ccccc5C[C@H]4C(=O)N4C[C@@H](C(=O)N[C@@H](Cc5ccccc5)C(=O)N5Cc6ccccc6C[C@H]5C(=O)N5C[C@@H](C(=O)N[C@@H](CCCCN)C(=O)N6Cc7ccccc7C[C@H]6C(=O)N6C[C@@H](C(=O)N[C@@H](CCCCN)C(=O)N[C@@H](CCCCN)C(=O)N[C@@H](CCCCN)C(=O)N[C@@H](CCCCN)C(N)=O)C7CCCCC76)C6CCCCC65)C5CCCCC54)C4CCCCC43)C3CCCCC32)C2CCCCC21 (stereo not given in full) (H-KL[Tic][X1]K[Tic][X1]F[Tic][X1]K[Tic][X1]F[Tic][X1]K[Tic][X1]KKKK-NH2) | 9.3 (≈ 30.8 µg/mL) | 150 (≈ 497 µg/mL) | 150 (≈ 497 µg/mL) | 150 (≈ 497 µg/mL) | 150 (≈ 497 µg/mL) | 150 (≈ 497 µg/mL) | 150 (≈ 497 µg/mL) | 150 (≈ 497 µg/mL) | 150 (≈ 497 µg/mL) | 150 (≈ 497 µg/mL) | 150 (≈ 497 µg/mL)
CC(=O)N[C@@H](CCCCN)C(=O)N[C@@H](CCCCN)C(=O)N[C@@H](CCCCN)C(=O)N[C@@H](CCCCN)C(=O)NCC(=O)N[C@@H](Cc1ccccc1)C(=O)N1Cc2ccccc2C[C@H]1C(=O)N1C[C@@H](C(=O)NCC(=O)N[C@@H](CCCCN)C(=O)N2Cc3ccccc3C[C@H]2C(=O)N2C[C@@H](C(=O)NCC(=O)N[C@@H](Cc3ccccc3)C(=O)N3Cc4ccccc4C[C@H]3C(=O)N3C[C@@H](C(=O)NCC(=O)N[C@@H](CCCCN)C(=O)N4Cc5ccccc5C[C@H]4C(N)=O)C4CCCCC43)C3CCCCC32)C2CCCCC21 (stereo not given in full) (Ac-KKKKGF[Tic][X1]GK[Tic][X1]GF[Tic][X1]GK[Tic]-NH2) | 12.8 (≈ 31.2 µg/mL) | 12.8 (≈ 31.2 µg/mL) | 102 (≈ 249 µg/mL) | 13.1 (≈ 32 µg/mL) | 51 (≈ 124 µg/mL) | 51 (≈ 124 µg/mL) | 25.6 (≈ 62.5 µg/mL) | 0.4 (≈ 0.976 µg/mL) | 51 (≈ 124 µg/mL) | 204 (≈ 498 µg/mL) | 204 (≈ 498 µg/mL)
CC(=O)NCCCC(=O)N[C@@H](Cc1ccccc1)C(=O)N1Cc2ccccc2C[C@H]1C(=O)N1C[C@@H](C(=O)NCCCC(=O)N[C@@H](CCCCN)C(=O)N2Cc3ccccc3C[C@H]2C(=O)N2C[C@@H](C(=O)NCCCC(=O)N[C@@H](Cc3ccccc3)C(=O)N3Cc4ccccc4C[C@H]3C(=O)N3C[C@@H](C(=O)NCCCC(=O)N[C@@H](CCCCN)C(=O)N4Cc5ccccc5C[C@H]4C(=O)N[C@@H](CCCCN)C(=O)N[C@@H](CCCCN)C(=O)N[C@@H](CCCCN)C(=O)N[C@@H](CCCCN)C(N)=O)C4CCCCC43)C3CCCCC32)C2CCCCC21 (stereo not given in full) (Ac-[GABA]F[Tic][X1][GABA]K[Tic][X1][GABA]F[Tic][X1][GABA]K[Tic]KKKK-NH2) | 3.1 (≈ 7.92 µg/mL) | 3.1 (≈ 7.92 µg/mL) | 196 (≈ 500 µg/mL) | 196 (≈ 500 µg/mL) | 196 (≈ 500 µg/mL) | 196 (≈ 500 µg/mL) | 196 (≈ 500 µg/mL) | 12.5 (≈ 31.9 µg/mL) | 196 (≈ 500 µg/mL) | 196 (≈ 500 µg/mL) | 196 (≈ 500 µg/mL)
CC(=O)NCCC(=O)N[C@@H](Cc1ccccc1)C(=O)N1Cc2ccccc2C[C@H]1C(=O)N1C[C@@H](C(=O)NCCC(=O)N[C@@H](CCCCN)C(=O)N2Cc3ccccc3C[C@H]2C(=O)N2C[C@@H](C(=O)NCCC(=O)N[C@@H](Cc3ccccc3)C(=O)N3Cc4ccccc4C[C@H]3C(=O)N3C[C@@H](C(=O)NCCC(=O)N[C@@H](CCCCN)C(=O)N[C@@H](CCCCN)C(=O)N[C@@H](CCCCN)C(=O)N[C@@H](CCCCN)C(=O)N[C@@H](CCCCN)C(N)=O)C4CCCCC43)C3CCCCC32)C2CCCCC21 (stereo not given in full) (Ac-[βAla]F[Tic][X1][βAla]K[Tic][X1][βAla]F[Tic][X1][βAla]KKKKK-NH2) | 1.5 (≈ 3.51 µg/mL) | 6.2 (≈ 14.5 µg/mL) | 200 (≈ 468 µg/mL) | 200 (≈ 468 µg/mL) | 200 (≈ 468 µg/mL) | 200 (≈ 468 µg/mL) | 200 (≈ 468 µg/mL) | 25 (≈ 58.4 µg/mL) | 100 (≈ 234 µg/mL) | 200 (≈ 468 µg/mL) | 200 (≈ 468 µg/mL)

Source: ChEMBL document CHEMBL1255229, “Novel antimicrobial peptides that exhibit activity against select agents and other drug resistant bacteria” (2010)
